Source: the supplement of paper PMC10307832

Experiments:
Assay in all cases: relative viability (nuclei count vs DMSO), 5 days (fraction); higher = more cells survive
[1] = compound: CN(C)CC1=CC(=CC=C1)N=C(C2=CC=CC=C2)C3=C(NC4=C3C=CC(=C4)C(=O)N(C)C)O + COc1cc2c(Oc3ccc(NC(=O)C4(C(=O)Nc5ccc(F)cc5)CC4)cc3F)ccnc2cc1OCCCN1CCOCC1 [Foretinib] (partner 0.25 µM)
How it was run: (§1)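 Nuclei were stained with Hoechst during a one-step fixation (final 0.05% Triton X-100, 1% formaldehyde, 1 ug/ml Hoechst) carried out 5 days after dosing, then counted on 4× images. The cells, lung cancer lines in 1536-well plates, had been dosed by pin tool the day after seeding with one drug alone or a fixed anchor-drug dose plus five library-drug doses (not always all listed) in √10 steps. Relative viability is the nuclei count in treated wells divided by that in vehicle wells, and each value is the median of duplicate plates.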

[2] = compound: CN(C)CC1=CC(=CC=C1)N=C(C2=CC=CC=C2)C3=C(NC4=C3C=CC(=C4)C(=O)N(C)C)O + Cc1nc(NC(=O)N2CCC[C@H]2C(N)=O)sc1-c1ccnc(C(C)(C)C(F)(F)F)c1 [Alpelisib] (partner 2 µM)
How it was run: as §1

[3] = compound: CN(C)CC1=CC(=CC=C1)N=C(C2=CC=CC=C2)C3=C(NC4=C3C=CC(=C4)C(=O)N(C)C)O + Nc1nc2[nH]cc(CCc3ccc(C(=O)N[C@@H](CCC(=O)O)C(=O)O)cc3)c2c(=O)[nH]1 [Pemetrexed] (partner 0.2 µM)
How it was run: as §1

[4] = compound: CN(C)CC1=CC(=CC=C1)N=C(C2=CC=CC=C2)C3=C(NC4=C3C=CC(=C4)C(=O)N(C)C)O + O=C(c1cc(Cc2n[nH]c(=O)c3ccccc23)ccc1F)N1CCN(C(=O)C2CC2)CC1 [Olaparib] (partner 8 µM)
How it was run: as §1

Row | Cell Line | relative viability ([1]; first compound 0.08 µM) | relative viability ([1]; first compound 0.253 µM) | relative viability ([1]; first compound 0.8 µM) | relative viability ([1]; first compound 2.53 µM) | relative viability ([1]; first compound 8 µM) | relative viability ([2]; first compound 0.08 µM) | relative viability ([2]; first compound 0.253 µM) | relative viability ([2]; first compound 0.8 µM) | relative viability ([2]; first compound 2.53 µM) | relative viability ([2]; first compound 8 µM) | relative viability ([3]; first compound 0.08 µM) | relative viability ([3]; first compound 0.253 µM) | relative viability ([3]; first compound 0.8 µM) | relative viability ([3]; first compound 2.53 µM) | relative viability ([3]; first compound 8 µM) | relative viability ([4]; first compound 0.08 µM) | relative viability ([4]; first compound 0.253 µM) | relative viability ([4]; first compound 0.8 µM) | relative viability ([4]; first compound 2.53 µM) | relative viability ([4]; first compound 8 µM)
1 | NCI-H3122 | 0.995 | 0.983 | 1.01 | 1.02 | 0.966 | 0.679 | 0.81 | 0.813 | 0.732 | 0.792 | 0.19 | 0.207 | 0.196 | 0.191 | 0.186 | 0.587 | 0.587 | 0.678 | 0.59 | 0.721
2 | NCI-H2009 | 1.17 | 1.22 | 1.21 | 1.23 | 1.11 | 1.15 | 1.11 | 1.1 | 1.04 | 1.05 | 0.982 | 0.993 | 1.08 | 1.03 | 0.957 | 0.726 | 0.722 | 0.732 | 0.649 | 0.669
3 | A-427 | 1.07 | 1.17 | 1.07 | 0.986 | 0.883 | 1.04 | 1.04 | 1.09 | 1.03 | 1.07 | 1.06 | 0.993 | 1 | 0.955 | 0.926 | 0.716 | 0.711 | 0.754 | 0.707 | 0.711
4 | LU99A | 0.787 | 0.842 | 0.926 | 0.809 | 0.781 | 0.486 | 0.579 | 0.497 | 0.559 | 0.364 | 0.171 | 0.173 | 0.228 | 0.156 | 0.185 | 0.263 | 0.331 | 0.254 | 0.264 | 0.247
5 | HCC-366 | 0.903 | 0.889 | 0.888 | 0.83 | 0.85 | 0.397 | 0.386 | 0.42 | 0.393 | 0.344 | 0.141 | 0.17 | 0.265 | 0.164 | 0.25 | 0.339 | 0.371 | 0.437 | 0.347 | 0.304
6 | NCI-H661 | 0.996 | 0.963 | 0.957 | 0.966 | 0.883 | 0.67 | 0.635 | 0.37 | 0.685 | 0.614 | 0.867 | 0.901 | 0.935 | 0.928 | 0.907 | 0.739 | 0.697 | 0.74 | 0.649 | 0.706
7 | CAL-12T | 1.09 | 1.22 | 1.44 | 0.864 | 1.29 | 1.19 | 1.29 | 1.18 | 1.11 | 1.15 | 1.17 | 1.22 | 1.14 | 1.34 | 1.25 | 0.704 | 0.67 | 0.81 | 0.654 | 0.829
8 | NCI-H1975 | 0.863 | 0.984 | 0.888 | 0.88 | 0.78 | 0.632 | 0.646 | 0.545 | 0.553 | 0.471 | 0.292 | 0.327 | 0.287 | 0.301 | 0.31 | 0.773 | 0.829 | 0.815 | 0.755 | 0.754
9 | NCI-H2087 | 1 | 1.07 | 1.19 | 1.09 | 0.955 | 1.14 | 1.24 | 1.15 | 1.15 | 0.992 | 0.629 | 0.644 | 0.617 | 0.721 | 0.68 | 0.571 | 0.507 | 0.41 | 0.536 | 0.537
10 | COR-L23 | 1.08 | 0.972 | 1.03 | 0.88 | 0.925 | 0.796 | 0.757 | 0.818 | 0.632 | 0.575 | 0.205 | 0.2 | 0.193 | 0.196 | 0.19 | 0.36 | 0.308 | 0.397 | 0.314 | 0.327
11 | NCI-H441 | 1.11 | 1.01 | 1.24 | 1.17 | 0.873 | 0.717 | 0.761 | 0.642 | 0.834 | 0.495 | 0.264 | 0.274 | 0.237 | 0.258 | 0.291 | 0.728 | 0.588 | 0.627 | 0.461 | 0.499
12 | COR-L 105 | 1.1 | 1.05 | 0.967 | 0.926 | 0.991 | 0.844 | 0.892 | 1.01 | 0.813 | 0.808 | 1.21 | 1.01 | 0.895 | 0.892 | 0.939 | 0.909 | 0.732 | 0.675 | 0.612 | 0.75
13 | HCC-827 | 1.05 | 1.08 | 1.01 | 1.02 | 0.876 | 1.06 | 1.04 | 0.93 | 0.923 | 0.875 | 0.266 | 0.241 | 0.25 | 0.229 | 0.269 | 0.615 | 0.65 | 0.67 | 0.623 | 0.685
14 | NCI-H2126 | 1.1 | 1.13 | 1.17 | 1.16 | 1.02 | 0.806 | 0.784 | 0.751 | 0.762 | 0.779 | 0.677 | 0.706 | 0.708 | 0.639 | 0.626 | 0.885 | 0.87 | 0.907 | 0.912 | 0.957
